Experimental data reported in ChEMBL document CHEMBL1136056, “Discovery of a nonpeptidic small molecule antagonist of the human platelet thrombin receptor (PAR-1)” (Bioorg Med Chem Lett, 2002).

How the values were obtained:
[1] = molecular target: T1, Proteinase-activated receptor 1 (Homo sapiens, UniProt P25116); experiment: Antagonistic activity against thrombin receptor, inhibition of secreted radiolabeled [3H]5-HT from washed human platelets stimulated by 3 uM thrombin receptor activating peptide (TRAP); format: functional
T1 sequence (P25116 whole entry): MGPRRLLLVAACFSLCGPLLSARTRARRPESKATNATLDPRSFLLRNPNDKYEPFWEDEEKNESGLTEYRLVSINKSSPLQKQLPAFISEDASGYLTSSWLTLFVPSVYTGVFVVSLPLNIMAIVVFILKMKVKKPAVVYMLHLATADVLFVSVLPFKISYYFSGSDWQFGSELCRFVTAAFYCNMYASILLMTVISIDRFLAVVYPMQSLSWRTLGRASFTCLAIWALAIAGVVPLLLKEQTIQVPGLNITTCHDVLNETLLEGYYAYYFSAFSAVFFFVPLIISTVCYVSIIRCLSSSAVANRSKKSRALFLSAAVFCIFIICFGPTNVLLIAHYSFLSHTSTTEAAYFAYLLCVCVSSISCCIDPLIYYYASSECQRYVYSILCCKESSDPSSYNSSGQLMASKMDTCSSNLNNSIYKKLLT

[2] = molecular target: T2, Proteinase-activated receptor 1 (Homo sapiens) (UniProt P25116); experiment: Inhibition of secretion of radiolabeled concentration; format: functional; conditions: concentration not given here
T2 sequence (whole entry): T1 sequence (P25116 whole entry)

[3] = molecular target: T1, Proteinase-activated receptor 1; experiment: Displacement of [3H]SFFLRR-NH2 from human thrombin receptor PAR-1
[4] = molecular target: T1, Proteinase-activated receptor 1; experiment: Inhibition of secretion of radiolabeled serotonin from washed human platelets stimulated by 1 nM thrombin; format: functional
Prothrombin = Prothrombin (Homo sapiens, UniProt P00734); experiment: Compound was tested for thrombin catalytic activity; no inhibition was observed

SMILES | IC50 [1] [µM] | inhibition [2] [%] | IC50 [3] [µM] | IC50 [4] [µM] | Ki (Prothrombin) [µM]
COc1cccc(CN(CCCN2CCCCCC2)c2cc(-c3ccccc3)no2)c1 | 0.5 | – | – | – | –
Cc1cccc(-c2cc(N(CCCN3CCCCCC3)Cc3ccc4c(c3)OCO4)on2)c1 | 0.12 | 60 | 0.89 | – | –
C[S+]([O-])c1ccc(-c2cc(N(CCCN3CCCCCC3)Cc3ccc4c(c3)OCO4)on2)cc1 (centres undefined) | 3.7 | – | – | – | –
CS(=O)(=O)c1ccc(-c2cc(N(CCCN3CCCCCC3)Cc3ccc4c(c3)OCO4)on2)cc1 | 3.2 | – | – | – | –
COc1ccccc1-c1cc(N(CCCN2CCCCCC2)Cc2ccc3c(c2)OCO3)on1 | 2.22 | – | 2.21 | – | –
CC(C)N(CC(O)c1ccc(C#N)cc1)C(=O)Nc1ccccc1 (centres undefined) | 12 | – | – | – | –
c1ccc(-c2cc(N(CCCN3CCCCC3)Cc3ccc4c(c3)OCO4)on2)cc1 | 0.6 | – | – | – | –
Ic1ccc(-c2cc(N(CCCN3CCCCCC3)Cc3ccc4c(c3)OCO4)on2)cc1 | 0.09 | – | 0.47 | 0.88 | –
Fc1cccc(-c2cc(N(CCCN3CCCCCC3)Cc3ccc4c(c3)OCO4)on2)c1 | 0.14 | – | 0.77 | 1.18 | –
c1ccc(-c2cc(N(CCCN3CCCCC3)Cc3ccc4ccccc4c3)on2)cc1 | 2 | – | – | – | –
Fc1cc(F)cc(-c2cc(N(CCCN3CCCCCC3)Cc3ccc4c(c3)OCO4)on2)c1 | 0.09 | – | 0.15 | 0.51 | > 10
O=[N+]([O-])c1cccc(-c2cc(N(CCCN3CCCCCC3)Cc3ccc4c(c3)OCO4)[o+][n-]2)c1 | 0.83 | – | 1.02 | > 10 | –
COc1cccc(-c2cc(N(CCCN3CCCCCC3)Cc3ccc4c(c3)OCO4)on2)c1 | 0.13 | – | 0.26 | 2.24 | –
Cc1ccccc1-c1cc(N(CCCN2CCCCCC2)Cc2ccc3c(c2)OCO3)on1 | 3.22 | – | – | – | –
Fc1ccc(-c2cc(N(CCCN3CCCCCC3)Cc3ccc4c(c3)OCO4)on2)cc1F | 0.5 | – | 2.14 | 2.4 | –
CCCCN(CCCN1CCCCC1)c1cc(-c2ccccc2)no1 | > 40 | – | – | – | –
COc1cccc(CN(CCCN2CCCCCCC2)c2cc(-c3ccccc3)no2)c1 | > 10 | – | – | – | –
Cc1ccc(-c2cc(N(CCCN3CCCCCC3)Cc3ccc4c(c3)OCO4)on2)cc1 | 0.14 | – | 0.29 | 3.2 | –
COc1ccc(-c2cc(N(CCCN3CCCCCC3)Cc3ccc4c(c3)OCO4)on2)cc1F | 0.07 | – | – | 2.14 | –
c1ccc(-c2cc(N(CCN3CCCCCC3)Cc3cccc4ccccc34)on2)cc1 | 5 | – | – | – | –
Clc1ccc(-c2cc(N(CCCN3CCCCCC3)Cc3ccc4c(c3)OCO4)on2)cc1 | 1.24 | – | 0.99 | 4.25 | –

SMILES | IC50 [1] [µM] | inhibition [2] [%] | IC50 [3] [µM] | IC50 [4] [µM] | Ki (Prothrombin) [µM]
Fc1ccc(-c2cc(N(CCCN3CCCCCC3)Cc3ccc4c(c3)OCO4)on2)cc1 | 1.31 | – | – | > 10 | –
COc1cccc(CN(CCCN2CCC2)c2cc(-c3ccccc3)no2)c1 | > 10 | – | – | – | –
COc1cccc(CN(CCCN2CCCC2)c2cc(-c3ccccc3)no2)c1 | 3.3 | – | – | – | –
c1ccc(-c2cc(N(CCCN3CCCCCC3)Cc3cccc4ccccc34)on2)cc1 | 0.36 | – | – | – | –
c1ccc(-c2cccc(-c3cc(N(CCCN4CCCCCC4)Cc4ccc5c(c4)OCO5)on3)c2)cc1 | 6.42 | – | – | – | –
c1ccc(CN(CCCN2CCCCC2)c2cc(-c3ccccc3)no2)cc1 | 9 | – | – | – | –
COc1cccc(CN(CCCC2CCCCC2)c2cc(-c3ccccc3)no2)c1 | > 10 | – | – | – | –
COc1cc(OC)cc(-c2cc(N(CCCN3CCCCCC3)Cc3ccc4c(c3)OCO4)on2)c1 | 0.13 | – | 0.52 | 1.2 | –
COc1cccc(CN(CCCN2CCCCC2)c2cc(-c3ccccc3)no2)c1 | 1.6 | – | – | – | –
CSc1ccc(-c2cc(N(CCCN3CCCCCC3)Cc3ccc4c(c3)OCO4)on2)cc1 | 0.43 | – | – | > 4 | –
c1ccc(-c2cc(N(CCCN3CCCCC3)Cc3cccc4ccccc34)on2)cc1 | 0.5 | – | – | – | –
c1ccc(-c2cc(N(CCCCN3CCCCCC3)Cc3cccc4ccccc34)on2)cc1 | 5 | – | – | – | –
COc1ccc(-c2cc(N(CCCN3CCCCCC3)Cc3ccc4c(c3)OCO4)on2)cc1 | 0.13 | 60 | 0.25 | – | –
c1ccc(-c2ccc(-c3cc(N(CCCN4CCCCCC4)Cc4ccc5c(c4)OCO5)on3)cc2)cc1 | 4.44 | – | – | – | –
Clc1ccccc1-c1cc(N(CCCN2CCCCCC2)Cc2ccc3c(c2)OCO3)on1 | 2.99 | – | – | – | –
Clc1cccc(-c2cc(N(CCCN3CCCCCC3)Cc3ccc4c(c3)OCO4)on2)c1 | 0.27 | – | 1.16 | 0.91 | –
N#Cc1cccc(-c2cc(N(CCCN3CCCCCC3)Cc3ccc4c(c3)OCO4)on2)c1 | 0.35 | – | 0.6 | 1.97 | –
COc1ccc(-c2cc(N(CCCN3CCCCCC3)Cc3ccc4c(c3)OCO4)on2)cc1OC | 0.4 | – | 1.2 | 4.67 | –
c1ccc(-c2cc(N(CCCN3CCCCC3)CC3CCCCC3)on2)cc1 | > 10 | – | – | – | –
Clc1cccc(CN(CCCN2CCCCC2)c2cc(-c3ccccc3)no2)c1 | 1 | – | – | – | –
